Measurements reported in patent US5908841A, “5,11-dihydro-6H-dipyrido[3,2-b:2',3'-e]azepine-6-ones and their use in the prevention of treatment of HIV infection” (priority 1998, dated 1999).

The molecules below were run against T1, HIV-1 reverse transcriptase, wild type (WT) (Human immunodeficiency virus type 1 group M subtype B, UniProt P03367) (assay: Reverse Transcriptase Assay, wild type (WT) enzyme (RNA-dependent DNA polymerase activity; poly r(C)/oligo d(G), 3H-dGTP)). Details: wild type (WT) RT.
T1 construct: Reverse transcriptase enzyme from the LAV strain of Human Immunodeficiency Virus (HIV-1); made in house; host or cells: Escherichia coli JM109 (clone pBRTprtl+ in vector pIBI21)
Type: biochemical, HIV-1 (LAV strain)
From the text: Utilizing the Reverse Transcriptase (RT) Assay described below, compounds can be tested for their ability to inhibit the RNA-dependent DNA polymerase activity of HIV-1 RT. Certain specific compounds described in the Examples which appear below, were so tested.
Among the enzymes for which Human Immunodeficiency Virus (HIV-1) encodes is a reverse transcriptase (1), so-named because it transcribes a DNA copy from an RNA template. This activity can be quantitatively measured in a cell-free enzyme assay, which has been previously described (2), and is based upon the observation that reverse transcriptase is able to use a synthetic template [poly r(C) primed with oligo d(G)] to transcribe a radio-labelled, acid-precipitable DNA strand utilizing ^3 H-dGTP as a substrate. The assay described below utilizes the wild type (WT) enzyme, which is the predominant form of the enzyme observed in patients infected with HIV-1. Utilization of mutant RT enzymes (Y181C and Y181L, prepared by site-directed mutagenesis in which the tyrosine residue at codon 181 has been replaced by a cysteine or a leucine residue, respectively) and analogous assay conditions allows compounds to be evaluated for their effectiveness at inhibiting these mutant enzymes.
a) Preparation of the wild type enzyme Reverse transcriptase enzyme from the LAV strain of Human Immunodeficiency Virus (HIV-1) (1) was isolated from the bacterial strain JM109 (3) expressing the DNA clone pBRTprtl+ (2) which is under the control of the lac promotor in the expression vector pIBI21 (4). An overnight culture grown in 2XYT medium (37° C., 225 rpm) (5) supplemented with 100 μg/mL ampicillin for positive selection is inoculated at a 1:40 dilution into M9 medium supplemented with 10 μg/mL thiamine, 0.5% casamino acids, and 50 μg/mL ampicillin (5). The culture is incubated (37° C., 225 rpm) until it reaches an OD540 of 0.3-0.4. At that time the repressor inhibitor IPTG (isopropyl β-D-thiogalactopyranoside) is added to 0.5 mM, and the mixture is incubated for 2 additional hours. Bacteria are pelleted, resuspended in a 50 mM Tris, 0.6 mM EDTA, 0.375M NaCl buffer and digested by the addition of lysozyme (1 mg/mL) for 30 minutes on ice. The cells are lysed by the addition of 0.2% NP-40 and brought to 1M NaCl.
After removal of the insoluble debris by centrifugation, the protein is precipitated by the addition of 3 volumes of saturated aqueous ammonium sulfate. The enzyme is pelleted, resuspended in RT buffer (50 mM Tris pH 7.5, 1 mM EDTA, 5 mM DTT, 0.1% NP-40, 0.1M NaCl, and 50% glycerol), and stored at -70° C. for further use.
b) Composition of 2× concentrated stock reaction mixture
[poly r(C)/oligo d(G)] (5:1)
The 2× concentrated stock reaction mixture is aliquoted and stored at -20° C. The mixture is stable and thawed for use in each assay. This enzyme assay has been adapted to a 96 well microtiter plate system, and has been previously described (6). Tris buffer (50 mM, pH 7.4), vehicle (solvent diluted to match the compound dilution), or compounds in vehicle are dispensed into 96-well microtiter plates (10 μL/well; 3 wells/compound). The HIV-1 RT enzyme is thawed, diluted in 50 mM Tris pH 7.4 so that fifteen μL of diluted enzyme contain 0.001 Unit (one unit is that amount of enzyme to transform 1 micromole of substrate per minute at 25° C.), and fifteen μL are dispensed per well. Twenty μL of 0.12-0.5M EDTA are added to the first three wells of the microtiter plate. EDTA chelates the Mg^++ present and prevents reverse transcription. This group serves as background polymerization which is subtracted from all other groups. Twenty-five μl of the 2× reaction mixture are added to all wells and the assay is allowed to incubate at room temperature for 60 minutes. The assay is terminated by precipitating the DNA in each well with 50 μL of 10% trichloracetic acid (TCA) (10% w/v) in sodium pyrophosphate (1% w/v). […]
COc1ccc2c(n1)C(SC)c1ncccc1C(=O)N2C (stereo not shown) [Example 11, 5,11-Dihydro-11-methylthio-2-methoxy-5-methyl-dipyrido[3,2-b:2',3'-e]azepine-6-one] gave an inhibition at 1 µM of 80%.
CCC1(CC)c2ncccc2C(=O)N(C)c2ccc(OC)nc21 [Example 9, 5,11-Dihydro-11-diethyl-2-methoxy-5-methyl-dipyrido[3,2-b:2',3'-e]azepine-6-one] was tested, and the inhibition at 1 µM was 66%.
CCC1c2ncccc2C(=O)N(C)c2ccc(OC)nc21 (stereo not shown) [Example 8, 5,11-Dihydro-11-ethyl-2-methoxy-5-methyl-dipyrido[3,2-b:2',3'-e]azepine-6-one] showed an inhibition at 1 µM of 84%.
With CCC1c2ncccc2C(=O)N(C)c2ccc(-c3cn[nH]c3)nc21 (stereo not shown) [Example 13, 5,11-Dihydro-11-ethyl-2-(4-pyrazolyl)-5-methyl-dipyrido[3,2-b:2',3'-e]azepine-6-one] the inhibition at 1 µM was 80%.
In the case of CCC1c2nc(OC)ccc2N(C)C(=O)c2ccc[n+]([O-])c21 (stereo not shown) [Example 7, 5,11-Dihydro-11-ethyl-2-methoxy-5-methyl-10-oxodipyrido[3,2-b:2',3'-e]azepine-6-one], the inhibition at 1 µM is reported as 75%.
CCC1(CC)c2ncccc2C(=O)N(C)c2cccnc21 [Example 5, 5,11-Dihydro-11-diethyl-5-methyldipyrido[3,2-b:2',3'-e]azepine-6-one] was tested, and the inhibition at 1 µM was 62%.
For CN1C(=O)c2cccnc2C2(CCCC2)c2ncccc21 [Example 6, 5,11-Dihydro-11-spirocyclopentyl-5-methyldipyrido[3,2-b:2',3'-e]azepine-6-one], the inhibition at 1 µM was 62%.
Molecule CCC1c2ncccc2N(C)C(=O)c2ccc[n+]([O-])c21 (stereo not shown) [Example 1, 5,11-Dihydro-11-ethyl-5-methyl-10-oxo-6H-dipyrido[3,2-b:2',3'-e]azepin-6-on] has an inhibition at 1 µM of 68%.
With CCC1(C)c2ncccc2C(=O)N(C)c2cccnc21 (stereo not shown) [Example 4, 5,11-Dihydro-11-ethyl-11-methyl-5-methyldipyrido[3,2-b:2',3'-e]azepine-6-one] the inhibition at 1 µM was 68%.
Work on CCC1c2ncccc2C(=O)N(C)c2cccnc21 (stereo not shown) [Example 2, 5,11-Dihydro-11-ethyl-5-methyldipyrido[3,2-b:2',3'-e]azepine-6-one] yielded an inhibition at 1 µM of 62%.
COc1ccc2c(n1)C(SC)c1c(ccc[n+]1[O-])C(=O)N2C (stereo not shown) [Example 10, 5,11-Dihydro-11-methylthio-2-methoxy-5-methyl-10-oxodipyrido[3,2-b:2',3'-e]azepine-6-one] gave an inhibition at 1 µM of 91%.
Molecule COc1ccc2c(n1)C(C)(SC)c1ncccc1C(=O)N2C (stereo not shown) [Example 12, 5,11-Dihydro-11-methyl-11-methylthio-2-methoxy-5-methyl-dipyrido[3,2-b:2',3'-e]azepine-6-one] has an inhibition at 1 µM of 41%.
In the case of CCCC1c2ncccc2C(=O)N(C)c2cccnc21 (stereo not shown) [Example 3, 5,11-Dihydro-11-propyl-5-methyldipyrido[3,2-b:2',3'-e]azepine-6-one], the inhibition at 1 µM is reported as 64%.
